Key:
Format in all cases: in vivo
[1] = test system: Italian ryegrass (Lolium multiflorum); assay: Test A preemergence, visual plant response rating; details: for Ryegrass, Italian plant response rating: 125 g ai/ha, preemergence, 0 to 100 scale, 0 no effect, 100 complete control; for Ryegrass, Italian plant response rating (0 to 100 scale): 500 g ai/ha Preemergence, approx. 10 days
Summary of the method: (§1)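 Ratings 0–100 (100 = complete control), visual, vs untreated controls at ~10 days. Application pre- or postemergence; solvent mixture with surfactant; loam/sand medium.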

[2] = test system: barnyardgrass (Echinochloa crus-galli); assay: Test A preemergence, visual plant response rating; details: for Barnyardgrass plant response rating: 125 g ai/ha, preemergence, 0 to 100 scale, 0 no effect, 100 complete control; for Barnyardgrass plant response rating (0 to 100 scale): 500 g ai/ha Preemergence, approx. 10 days
Summary of the method: as §1

[3] = test system: foxtail, giant (giant foxtail, Setaria faberii); assay: Test A preemergence, visual plant response rating; details: for Foxtail, Giant plant response rating: 125 g ai/ha, preemergence, 0 to 100 scale, 0 no effect, 100 complete control; for Foxtail, Giant plant response rating (0 to 100 scale): 500 g ai/ha Preemergence, approx. 10 days
Summary of the method: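 Ratings use a 0–100 visual scale (100 = complete control) against untreated controls, scored about 10 days after greenhouse treatment. Test chemicals were formulated in surfactant-containing non-phytotoxic solvent and applied either as soil spray after planting (preemergence) or onto one- to two-leaf, 2–10 cm plants (postemergence).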

kochia (Kochia scoparia) [4] = assay: Test A preemergence, visual plant response rating; details: for Kochia plant response rating: 125 g ai/ha, preemergence, 0 to 100 scale, 0 no effect, 100 complete control; for Kochia plant response rating (0 to 100 scale): 500 g ai/ha Preemergence, approx. 10 days
Summary of the method: as §1

[5] = test system: pigweed (Amaranthus retroflexus); assay: Test A preemergence, visual plant response rating; details: for Pigweed plant response rating: 125 g ai/ha, preemergence, 0 to 100 scale, 0 no effect, 100 complete control; for Pigweed plant response rating (0 to 100 scale): 500 g ai/ha Preemergence, approx. 10 days
Summary of the method: as §1

[6] = test system: ragweed (common ragweed, Ambrosia elatior); assay: Test A preemergence, visual plant response rating; details: for Ragweed plant response rating: 125 g ai/ha, preemergence, 0 to 100 scale, 0 no effect, 100 complete control; for Ragweed plant response rating (0 to 100 scale): 500 g ai/ha Preemergence, approx. 10 days
Summary of the method: as §1

[7] = test system: Italian ryegrass (Lolium multiflorum); assay: Test A postemergence, visual plant response rating; details: for Ryegrass, Italian plant response rating (0 to 100 scale): 500 g ai/ha, postemergence, 0 is no effect, 100 is complete control; for Ryegrass, Italian plant response rating: Postemergence, 125 g ai/ha, 0 to 100 scale (0 no effect, 100 complete control)
Excerpt: (§2) Seeds of plant species selected from barnyardgrass (Echinochloa crus-galli), kochia (Kochia scoparia), ragweed (common ragweed, Ambrosia elatior), Italian ryegrass (Lolium multiflorum), foxtail, giant (giant foxtail, Setaria faberii), foxtail, green (green foxtail, Setaria viridis), and pigweed (Amaranthus retroflexus) were planted into a blend of loam soil and sand and treated preemergence with a directed soil spray using test chemicals formulated in a non-phytotoxic solvent mixture which included a surfactant.
(§3) At the same time, plants selected from these weed species and also wheat (Triticum aestivum), corn (Zea mays), blackgrass (Alopecurus myosuroides), and galium (catchweed bedstraw, Galium aparine) were planted in pots containing the same blend of loam soil and sand and treated with postemergence applications of test chemicals formulated in the same manner. Plants ranged in height from 2 to 10 cm and were in the one- to two-leaf stage for the postemergence treatment. Treated plants and untreated controls were maintained in a greenhouse for approximately 10 days, after which time all treated plants were compared to untreated controls and visually evaluated for injury. Plant response ratings, summarized in Table A, are based on a 0 to 100 scale where 0 is no effect and 100 is complete control. A dash (-) response means no test result.

[8] = test system: barnyardgrass (Echinochloa crus-galli); assay: Test A postemergence, visual plant response rating; details: for Barnyardgrass plant response rating (0 to 100 scale): 500 g ai/ha, postemergence, 0 is no effect, 100 is complete control; for Barnyardgrass plant response rating: Postemergence, 125 g ai/ha, 0 to 100 scale (0 no effect, 100 complete control)
Excerpt: as §2, §3

[9] = test system: blackgrass (Alopecurus myosuroides); assay: Test A postemergence, visual plant response rating; details: for Blackgrass plant response rating (0 to 100 scale): 500 g ai/ha, postemergence, 0 is no effect, 100 is complete control; for Blackgrass plant response rating: Postemergence, 125 g ai/ha, 0 to 100 scale (0 no effect, 100 complete control)
Excerpt: as §2, §3

corn (Zea mays) = assay: Test A postemergence, visual plant response rating; details: for Corn plant response rating (0 to 100 scale): 500 g ai/ha, postemergence, 0 is no effect, 100 is complete control; for Corn plant response rating: Postemergence, 125 g ai/ha, 0 to 100 scale (0 no effect, 100 complete control)
Excerpt: as §2, §3

[10] = test system: foxtail, giant (giant foxtail, Setaria faberii); assay: Test A postemergence, visual plant response rating; details: for Foxtail, Giant plant response rating (0 to 100 scale): 500 g ai/ha, postemergence, 0 is no effect, 100 is complete control; for Foxtail, Giant plant response rating: Postemergence, 125 g ai/ha, 0 to 100 scale (0 no effect, 100 complete control)
Excerpt: as §2, §3

[11] = test system: galium (catchweed bedstraw, Galium aparine); assay: Test A postemergence, visual plant response rating; details: for Galium plant response rating (0 to 100 scale): 500 g ai/ha, postemergence, 0 is no effect, 100 is complete control; for Galium plant response rating: Postemergence, 125 g ai/ha, 0 to 100 scale (0 no effect, 100 complete control)
Excerpt: as §2, §3

kochia (Kochia scoparia) [12] = assay: Test A postemergence, visual plant response rating; details: for Kochia plant response rating (0 to 100 scale): 500 g ai/ha, postemergence, 0 is no effect, 100 is complete control; for Kochia plant response rating: Postemergence, 125 g ai/ha, 0 to 100 scale (0 no effect, 100 complete control)
Excerpt: as §2, §3

[13] = test system: pigweed (Amaranthus retroflexus); assay: Test A postemergence, visual plant response rating; details: for Pigweed plant response rating (0 to 100 scale): 500 g ai/ha, postemergence, 0 is no effect, 100 is complete control; for Pigweed plant response rating: Postemergence, 125 g ai/ha, 0 to 100 scale (0 no effect, 100 complete control)
Excerpt: as §2, §3

[14] = test system: ragweed (common ragweed, Ambrosia elatior); assay: Test A postemergence, visual plant response rating; details: for Ragweed plant response rating (0 to 100 scale): 500 g ai/ha, postemergence, 0 is no effect, 100 is complete control; for Ragweed plant response rating: Postemergence, 125 g ai/ha, 0 to 100 scale (0 no effect, 100 complete control)
Excerpt: as §2, §3

[15] = test system: wheat (Triticum aestivum); assay: Test A postemergence, visual plant response rating; details: for Wheat plant response rating (0 to 100 scale): 500 g ai/ha, postemergence, 0 is no effect, 100 is complete control; for Wheat plant response rating: Postemergence, 125 g ai/ha, 0 to 100 scale (0 no effect, 100 complete control)
Excerpt: as §2, §3

[16] = test system: barnyardgrass (Echinochloa crus-galli); assay: Test B flooded paddy test, visual plant response rating; details: 250 g ai/ha, Flood, applied to paddy water, 2-leaf stage, evaluated after 13 to 15 days
Summary of the method: (§4)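 Greenhouse paddy conditions applied: two-leaf plants, a 3 cm flood above the soil surface maintained throughout, and compound added to the water rather than the foliage. Plants were judged visually against controls at 13 to 15 days.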

[17] = test system: ducksalad (Heteranhera limosa); assay: as above; details: 250 g ai/ha, Flood, applied to paddy water, 2-leaf stage, evaluated after 13 to 15 days
Summary of the method: as §4

rice (Oryza sativa) = assay: as above; details: 250 g ai/ha, Flood, applied to paddy water, 2-leaf stage, evaluated after 13 to 15 days
Summary of the method: as §4

[18] = test system: sedge, umbrella (small-flower umbrella sedge, Cyperus difformis); assay: as above; details: 250 g ai/ha, Flood, applied to paddy water, 2-leaf stage, evaluated after 13 to 15 days
Summary of the method: as §4

Row | Compound | Ryegrass, Italian plant response rating [1] | Ryegrass, Italian plant response rating (0 to 100 scale) [1] | Barnyardgrass plant response rating [2] | Barnyardgrass plant response rating (0 to 100 scale) [2] | Foxtail, Giant plant response rating [3] | Foxtail, Giant plant response rating (0 to 100 scale) [3] | Kochia plant response rating (kochia (Kochia scoparia) [4]) | Kochia plant response rating (0 to 100 scale) (kochia (Kochia scoparia) [4]) | Pigweed plant response rating [5] | Pigweed plant response rating (0 to 100 scale) [5] | Ragweed plant response rating [6] | Ragweed plant response rating (0 to 100 scale) [6] | Ryegrass, Italian plant response rating (0 to 100 scale) [7] | Ryegrass, Italian plant response rating [7] | Barnyardgrass plant response rating (0 to 100 scale) [8] | Barnyardgrass plant response rating [8] | Blackgrass plant response rating (0 to 100 scale) [9] | Blackgrass plant response rating [9] | Corn plant response rating (0 to 100 scale) (corn (Zea mays)) | Corn plant response rating (corn (Zea mays)) | further results
1 | CON=C(c1c(OC(C)=O)c(C)nn(C)c1=O)c1cccc2ccccc12 [Compound 48] | 40 | 70 | 20 | 70 | 90 | 90 | 40 | 100 | 30 | 100 | 100 | 100 | 80 | 70 | 30 | 20 | 90 | 70 | 80 | 10 | Foxtail, Giant plant response rating (0 to 100 scale) [10]: 80; Foxtail, Giant plant response rating [10]: 30; Galium plant response rating (0 to 100 scale) [11]: 90; Galium plant response rating [11]: 80; Kochia plant response rating (0 to 100 scale) (kochia (Kochia scoparia) [12]): 80; Kochia plant response rating (kochia (Kochia scoparia) [12]): 70; Pigweed plant response rating (0 to 100 scale) [13]: 90; Pigweed plant response rating [13]: 80; Ragweed plant response rating (0 to 100 scale) [14]: 90; Ragweed plant response rating [14]: 80; Wheat plant response rating (0 to 100 scale) [15]: 10; Wheat plant response rating [15]: 0; Plant response rating, Barnyardgrass (0 to 100 scale, 0 is no effect, 100 is complete control) [16]: 0; Plant response rating, Ducksalad (0 to 100 scale, 0 is no effect, 100 is complete control) [17]: 0; Plant response rating, Rice (0 to 100 scale, 0 is no effect, 100 is complete control) (rice (Oryza sativa)): 0; Plant response rating, Sedge, Umbrella (0 to 100 scale, 0 is no effect, 100 is complete control) [18]: 0
2 | CON=C(c1c(O)c(C)nn(C)c1=O)c1csc2ccccc12 (single isomer, unassigned) [Compound 46] | 0 | 0 | 0 | 0 | 0 | 0 | 0 | 30 | 0 | 10 | 20 | 50 | 10 | 10 | 0 | 0 | 0 | 0 | 0 | 0 | Foxtail, Giant plant response rating (0 to 100 scale) [10]: 0; Foxtail, Giant plant response rating [10]: 0; Galium plant response rating (0 to 100 scale) [11]: 60; Galium plant response rating [11]: 30; Kochia plant response rating (0 to 100 scale) (kochia (Kochia scoparia) [12]): 0; Kochia plant response rating (kochia (Kochia scoparia) [12]): 0; Pigweed plant response rating (0 to 100 scale) [13]: 20; Pigweed plant response rating [13]: 10; Ragweed plant response rating (0 to 100 scale) [14]: 70; Ragweed plant response rating [14]: 40; Wheat plant response rating (0 to 100 scale) [15]: 0; Wheat plant response rating [15]: 0; Plant response rating, Barnyardgrass (0 to 100 scale, 0 is no effect, 100 is complete control) [16]: 0; Plant response rating, Ducksalad (0 to 100 scale, 0 is no effect, 100 is complete control) [17]: 0; Plant response rating, Rice (0 to 100 scale, 0 is no effect, 100 is complete control) (rice (Oryza sativa)): 0; Plant response rating, Sedge, Umbrella (0 to 100 scale, 0 is no effect, 100 is complete control) [18]: 0
